# Experiments:
# [1] = drug by itself; cited from earlier work
# [2] = lipophilic partition coefficient of the drug; cited from earlier work
# [3] = Release of drug from drug-loaded disintegrating hydrogel into simulated gastric fluid, supersaturation by UV-vis; conditions: 2 hours, 150 rpm, hydrogel from 25% by volume acetal cross-linker, drug loading as in % wt drug
# Procedure: A disintegrating hydrogel is first formed from 0.125 mL of a solution of dimethylformamide containing 25% by volume of the cross-linker triethylene glycol di[ethyl-1-methacryloyloxy poly(ethylene glycol) acetal] and 5% by volume of the photoinitiator 2-hydroxy-2-methylpropiophenone then purified by washing several times in ethanol. This disintegrating hydrogel is then transferred to the same solvent used to maximize the dissolution of the active pharmaceutical ingredient of interest. The hydrogel is transferred to a silicone mold and heated for a minimum amount of time to evaporate a majority of the solvent soaked into the hydrogel pores. Then about 0.1 mL of a solution of the active pharmaceutical ingredient solubilized in the preferred solvent is added to the silicone mold containing the hydrogel, which is allowed to swell in order to absorb the solution. Once absorbed, the solvent is removed in a vacuum oven in order to induce the crystallization of the active pharmaceutical ingredient in the hydrogel pores. The mass of the active pharmaceutical ingredient contained in the disintegrating hydrogel is determined experimentally then normalized by the combined mass of both components to quantify the weight fraction of the active pharmaceutical ingredient.
# The hydrogel is added to the vial and allowed to dissolve over the course of 2 hours. The presence of the active pharmaceutical ingredient in the aqueous solution is monitored by ultraviolet-visible spectrometry to quantify the concentration relative to the inherent solubility of the active pharmaceutical ingredient without a hydrogel present. The ratio of the solubility achieved upon release from disintegrating hydrogels to the solubility achieved upon dissolution without disintegrating hydrogels is the supersaturation.
# [4] = Dissolution of drug encapsulated in acid-hydrolysable hydrogels in 0.1M HCl solution (pH=1); type: physicochemical; conditions: immediate release acid-hydrolysable hydrogels
# Source text: FIG. 3 is a dissolution profile of vitamin E (tocopherol) encapsulated at various drug loading levels in hydrogels composed of 25% by volume acetal cross-linker into a 0.1M HCl solution (pH=1).
# The hydrogel labelled acetal hydrogel [w/ 10% surfactant] {w/ 15% surfactant} were synthesized by polymerizing a pre-cursor solution containing 25% [20%] {20%} by volume of the triethylene glycol di[ethyl-1-methacryloyloxy poly(ethylene glycol) acetal] cross-linker, 0% [3.9%] {3.9%} by volume of methyl methacrylate, 0% [6.1%] {6.1%} by volume of dimethylaminoethyl methacrylate, and 0% [10%] {15%} by volume of a hydrolytically hydrolysable surfactant monomer: acetaldehyde-(stearyl PEG-20 ether)-(acrylate ethylene glycol) acetal. Each drug substance is loaded into the pores of the hydrogel by first dissolving in ethanol and adding the organic solution into a silicone mold containing the pre-formed and washed hydrogel followed by evaporation of the solvent. Sufficient drug substance solution is added to the mold to reach a range of drug loading values.
Compound,C_s (aqueous solubility) [1],log P [2],X_sat (supersaturation: ratio of solubility achieved upon release from disintegrating hydrogels to solubility without hydrogels) [3],supersaturation level of final concentration [4]
COC1=C(OC)C(=O)C(C/C=C(\C)CC/C=C(\C)CC/C=C(\C)CC/C=C(\C)CC/C=C(\C)CC/C=C(\C)CC/C=C(\C)CC/C=C(\C)CC/C=C(\C)CCC=C(C)C)=C(C)C1=O [Coenzyme Q10],0.2 µg/mL,9.9,69.1,–
CCCCN(CCCC)CC(O)c1cc(Cl)cc2c1-c1ccc(Cl)cc1/C2=C/c1ccc(Cl)cc1 (centres unmarked) [lumefantrine],0.04 µg/mL,8.34,–,–
tocopherol [tocopherol (vitamin E)],–,–,–,up to 74 times the intrinsic solubility
CC(=O)[C@H]1CC[C@H]2[C@@H]3CCC4=CC(=O)CC[C@]4(C)[C@H]3CC[C@]12C [progesterone],5.5 µg/mL,–,–,≤ 11 times the intrinsic solubility
CCCSc1ccc2nc(NC(=O)OC)[nH]c2c1 [albendazole],22.8 µg/mL,2.7,2.01,–
C[C@H]1C[C@@H]2[C@H]([C@@H](O)C[C@@]3(C)[C@H]2CC[C@]3(O)C(=O)CO)[C@@]2(C)C=CC(=O)C=C12 [methylprednisolone],–,1.53,–,–
Cc1ccc(Nc2nccc(N(C)c3ccc4c(C)n(C)nc4c3)n2)cc1S(N)(=O)=O [pazopanib],43.3 µg/mL,3.59,–,–
C[C@@H]1[C@H](O)[C@@H](C)/C=C/C=C/C=C/C=C/C=C/C=C/C=C/[C@H](O[C@@H]2O[C@H](C)[C@@H](O)[C@H](N)[C@@H]2O)C[C@@H]2O[C@](O)(C[C@@H](O)C[C@@H](O)[C@H](O)CC[C@@H](O)C[C@@H](O)CC(=O)O[C@H]1C)C[C@H](O)[C@H]2C(=O)O [amphotericin b],82 µg/mL,0.8,13.8,–
"C=C(C)[C@@H]1CCC(C)=C[C@H]1c1c(O)cc(CCCCC)cc1O [cannabidiol (CBD), cannabidiol]",–,–,22.3,–
Cc1cn(-c2cc(NC(=O)c3ccc(C)c(Nc4nccc(-c5cccnc5)n4)c3)cc(C(F)(F)F)c2)cn1 [nilotinib],2.01 µg/mL,4.51,–,–
CC(C)/N=c1\cc2n(-c3ccc(Cl)cc3)c3ccccc3nc-2cc1Nc1ccc(Cl)cc1 [clofazimine],0.23 µg/mL,–,–,–
CC/C=C\C/C=C\C/C=C\C/C=C\C/C=C\CCCC(=O)O [eicosapentaenoic acid],0.29 µg/mL,6.1,–,–

# Reference: US20210059933A1, “HYDROGELS AS ORAL DELIVERY DOSAGE FORMS, METHODS OF MAKING AND USING SAME” (priority 2019, published 2021)
